Test results taken from patent US9567629B2, “Labeled enzyme compositions, methods and systems” (LIFE TECHNOLOGIES CORPORATION, priority 2009, dated 2017).

Experiments:
[1] = system: dye-labeled primer-template duplex with AF647-C6-dG6P; test: Stopped-flow measurements of tpol (nucleotide incorporation kinetics); type: biochemical; conditions: 330 nM polymerase, 100 nM template/primer duplex, 7 μM AF647-C6-dG6P, 2 mM MnCl2
Protocol: In this example, the t−1 and tpol values of a Phi-29 polymerase comprising the amino acid sequence of SEQ ID NO: 3 and a B103 polymerase comprising the amino acid sequence of SEQ ID NO: 34 (referred to as “mB103” in the table below) and including amino acid substitutions at various positions were measured using a stopped-flow procedure. The stopped-flow techniques for measuring tpol (1/kpol) followed the techniques described by MP Roettger (2008 Biochemistry 47:9718-9727; M. Bakhtina 2009 Biochemistry 48:3197-320).
The template sequence (SEQ ID NO: 44) further included an Alexa Fluor 546 dye moiety bonded to the 5′ position of the template.
The kinetics of nucleotide incorporation by each polymerase was measured in an Applied Photophysics SX20 stopped-flow spectrometer by monitoring changes in fluorescence from the dye-labeled primer-template duplex complexed to enzyme, following the mixing of the enzyme-DNA complex with dye-labeled nucleotides. […]
The primer and template were annealed to form a dye-labeled primer-template duplex using standard methods. […] The dye-labeled nucleotide AF647-C6-dG6P was then added to a final concentration of 7 μM, and the resulting fluorescence was monitored over time. […]

[2] = system: [enzyme•DNA•nucleotide] ternary complex with AF647-C6-dG6P; test: Stopped-flow measurements of t−1 (nucleotide dissociation from ternary complex); type: biochemical; conditions: 330 nM polymerase, 100 nM duplex, 7 μM AF647-C6-dG6P, chase 50 μM non-labeled dNTP, 2 mM MnCl2
Protocol: The stopped-flow techniques for measuring t−1 (1/k−1) followed the techniques described by M. Bakhtina (2009 Biochemistry 48:3197-3208).
The rate of the nucleotide dissociation (k1) from the ternary complex of [enzyme•DNA•nucleotide] was measured in an Applied Photophysics SX20 stopped-flow spectrometer by monitoring changes […] a duplex Alexa fluor 546 dye-labeled-DNA template following the mixing of the [enzyme•DNA•labeled nucleotide] ternary complex with 50 μM cognate non-labeled deoxynucleoside triphosphate in a buffer containing 50 mM Tris-HCl (pH 7.5), 50 mM NaCl, 4 mM DTT, 0.2% BSA, and 2 mM MnCl2.
The ternary complexes were prepared using: 330 nM polymerase, 100 nM template/primer duplex, and 7 μM terminal phosphate-labeled nucleotides (AF647-C6-dG6P).
The averaged stopped-flow fluorescence traces (>1.5 msec) were fitted with a single exponential equation (2) to extrapolate the rate of the nucleotide dissociation (k−1) from the [enzyme•DNA•nucleotide] ternary complex. Fluorescence=A1*e^−k−1*t+C (equation 2) where A1 represents the corresponding fluorescence amplitude, C is an offset constant, and k−1 and the observed rate constants for the fluorescence transition.

t−1 [2]: 27
Substance: Phi-29 (exo−): exonuclease-minus Phi-29 polymerase (Phi-29 polymerase comprising SEQ ID NO: 3) [reference compound]
tpol [1]: 11
